Assay results taken from patent publication US11884707B2, “Compositions for detection, inhibition and imaging of indoleamine 2, 3-dioxygenase 1 (IDO1) and methods of making and using same” (Regeneron Pharmaceuticals, Inc., priority 2016, dated 2024).
Where a SMILES comes first, the peptide text is derived from it. Bridges are numbered along the chain shown (N, C = ends). Triazole bridges read from a SMILES are 1,4-linked. [ ]: non-standard residue; d: D form. The star is where a group is joined. Biotinyl(3aR,4R,6aS) = O=C1N[C@@H]2[C@@H](CS[C@@H]2CCCCC(=O)*)N1; Biotin = O=C1N[C@H]2[C@H](CS[C@H]2CCCCC(=O)*)N1; Trp(1-Me) = Cn1cc(C[C@H](N)C(=O)O)c2ccccc21; Lys(N3) = [N-]=[N+]=NCCCC[C@H](N)C(=O)O; Phe(4-F) = N[C@@H](Cc1ccc(F)cc1)C(=O)O; AEEEA = NCCOCCOCCOCC(=O)O; Pra = C#CC[C@H](N)C(=O)O

Target: T1, His-tagged IDO1 human recombinant protein (Homo sapiens, UniProt P14902)
T1 construct: purchased BPS Biosciences 71182
Assay: IDO1 ELISA (affinity assay), sandwich ELISA with immobilized biotinylated macrocycle
Format: binding
Settings: for EC50: biotin-PEG3-modified macrocycle immobilized on NeutrAvidin plate (2 μM coating), His-tagged human IDO1 200 to 0 nM
Method: A black 96-well NeutrAvidin Coated High Binding Capacity plate (15510, Pierce) was coated with 2 μM biotinylated macrocyclic peptide ligand in TBS (25 mM Tris-HCl, 150 mM NaCl, pH 7.6) for 2 h at room temperature. The plate was aspirated and then washed with Wash Buffer (0.05% (v/v) Tween-20 in PBS, 6×). His-tagged IDO1 human recombinant protein (71182, BPS Biosciences) was serially diluted in Wash Buffer (from 200 to 0 nM) and incubated in the designated microwells for 1 h at room temperature. Microwells were aspirated and subsequently washed with Wash Buffer (11×). To detect the bound IDO1 protein, Alkaline Phosphatase (AP)-conjugated Anti-6×His Tag® antibody [HIS-1] (ab49746, Abcam) was prepared at 1:10,000 dilution and added to the microwells for 1 h at room temperature. The plate was aspirated and washed with Wash Buffer (5×). AttoPhos® AP Fluorescent Substrate System (S1000, Promega) was employed to develop the microwells. Using an excitation wavelength of 430 nm, fluorescent emission at 535 nm was recorded by Beckman Coulter DTX880 photometer. Titration curves were fit using a four-parameter regression curve fitting program to determine EC50 values.
The binding affinities of biotin-PEG3-modified macrocyclic peptide ligands were tested in an ELISA format. For these assays, a dilution series of His-tagged IDO1 human recombinant protein was captured using the macrocyclic peptide ligands immobilized on a NeutrAvidin-coated plate. […] The sequences of the peptide ligands are listed in Table 1, where D-amino acids are denoted in lowercase, Me-Trp=1-methyl-L-tryptophan, and F-Phe=4-fluoro-L-phenylalanine.
The D-alanine substituted, biotin-PEG3-modified macrocycles were tested in the IDO1 ELISA (Affinity assay). For these assays, a dilution series of His-tagged IDO1 human recombinant protein was captured using macrocycles immobilized on a NeutrAvidin-coated plate.

[1] = alanine scan and 3-mer/4-mer variants, biotin-PEG3-modified, FIGS. 15-18

T1 sequence (P14902 whole entry): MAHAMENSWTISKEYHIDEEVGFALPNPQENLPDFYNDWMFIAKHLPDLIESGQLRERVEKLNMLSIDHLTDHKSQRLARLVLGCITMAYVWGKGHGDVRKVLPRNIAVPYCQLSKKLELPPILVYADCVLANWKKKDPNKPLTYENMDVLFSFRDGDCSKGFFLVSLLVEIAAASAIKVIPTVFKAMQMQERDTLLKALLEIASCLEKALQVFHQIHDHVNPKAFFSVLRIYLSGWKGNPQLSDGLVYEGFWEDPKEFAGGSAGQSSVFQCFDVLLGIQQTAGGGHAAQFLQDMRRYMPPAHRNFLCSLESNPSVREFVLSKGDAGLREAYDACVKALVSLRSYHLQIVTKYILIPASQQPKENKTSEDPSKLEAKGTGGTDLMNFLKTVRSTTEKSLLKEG

EC50	SMILES	Binding affinity to human IDO1 relative to parent macrocycle or sibling variants (in words) [1]	other results
–	CC(C)C[C@H]1NC(=O)[C@@H](NC(=O)COCCOCCOCCNC(=O)CCCC[C@H]2SC[C@H]3NC(=O)N[C@H]32)Cc2cn(nn2)CCCC[C@@H](C(N)=O)NC(=O)[C@H](Cc2ccc(F)cc2)NC(=O)[C@H](Cc2cn(C)c3ccccc23)NC(=O)[C@@H](Cc2ccccc2)NC1=O [lf(Me-Trp)(F-Phe), Biotin-PEG3-Cy(lf(Me-Trp)(F-Phe))] ({Biotinyl(3aR,4R,6aS)-AEEEA}-[Pra][dL][dF][Trp(1-Me)][Phe(4-F)][Lys(N3)]-NH2; triazole 1-6)	slight decrease in binding affinity	–
25 nM	C[C@H]1NC(=O)[C@@H](CCCNC(=N)N)NC(=O)[C@@H](Cc2ccc(O)cc2)NC(=O)[C@@H](Cc2c[nH]c3ccccc23)NC(=O)[C@@H](NC(=O)COCCOCCOCCNC(=O)CCCC[C@@H]2SC[C@@H]3NC(=O)N[C@@H]32)Cc2cn(nn2)CCCC[C@@H](C(N)=O)NC(=O)[C@@H](Cc2ccc(O)cc2)NC1=O [biotin-PEG3-Cy(wyray)] ({Biotin-AEEEA}-[Pra][dW][dY][dR][dA][dY][Lys(N3)]-NH2; triazole 1-7)	–	–
–	NC(=O)[C@@H]1CCCCn2cc(nn2)C[C@H](NC(=O)COCCOCCOCCNC(=O)CCCC[C@@H]2SC[C@@H]3NC(=O)N[C@@H]32)C(=O)N[C@H](CO)C(=O)N[C@H](Cc2c[nH]c3ccccc23)C(=O)N[C@H](Cc2c[nH]c3ccccc23)C(=O)N[C@@H](Cc2ccc(F)cc2)C(=O)N1 [sww(F-Phe), Biotin-PEG3-Cy(sww(F-Phe))] ({Biotin-AEEEA}-[Pra][dS][dW][dW][Phe(4-F)][Lys(N3)]-NH2; triazole 1-6)	–	Maximum ELISA signal for human IDO1 binding (in words) [1]: superior to the other 4-mers generated
124 nM	Cn1cc(C[C@@H]2NC(=O)[C@@H](CCCNC(=N)N)NC(=O)[C@@H](Cc3ccccc3)NC(=O)[C@@H](CO)NC(=O)[C@@H](CC(N)=O)NC(=O)[C@@H](NC(=O)COCCOCCOCCNC(=O)CCCC[C@@H]3SC[C@@H]4NC(=O)N[C@@H]43)Cc3cn(nn3)CCCC[C@@H](C(N)=O)NC2=O)c2ccccc21 [biotin-PEG3-Cy(nsfr(Me-Trp))] ({Biotin-AEEEA}-[Pra][dN][dS][dF][dR][Trp(1-Me)][Lys(N3)]-NH2; triazole 1-7)	–	–
–	C[C@H]1NC(=O)[C@@H](Cc2ccccc2)NC(=O)[C@@H](CCCNC(=N)N)NC(=O)[C@@H](Cc2ccccc2)NC(=O)[C@@H](NC(=O)COCCOCCOCCNC(=O)CCCC[C@@H]2SC[C@@H]3NC(=O)N[C@@H]32)Cc2cn(nn2)CCCC[C@@H](C(N)=O)NC(=O)[C@@H](CO)NC1=O [frfas, Biotin-PEG3-Cy(frfas)] ({Biotin-AEEEA}-[Pra][dF][dR][dF][dA][dS][Lys(N3)]-NH2; triazole 1-7)	weakest binding to IDO1	–
–	N=C(N)NCCC[C@H]1NC(=O)[C@@H](Cc2ccc(O)cc2)NC(=O)[C@@H](Cc2c[nH]c3ccccc23)NC(=O)[C@@H](NC(=O)COCCOCCOCCNC(=O)CCCC[C@H]2SC[C@H]3NC(=O)N[C@H]32)Cc2cn(nn2)CCCC[C@@H](C(N)=O)NC(=O)[C@@H](Cc2ccc(O)cc2)NC1=O [wyry, Biotin-PEG3-Cy(wyry)] ({Biotinyl(3aR,4R,6aS)-AEEEA}-[Pra][dW][dY][dR][dY][Lys(N3)]-NH2; triazole 1-6)	best affinity among the 4-mer macrocycles	–
20 nM	Cn1cc(C[C@@H]2NC(=O)[C@@H](Cc3ccccc3)NC(=O)[C@@H](CCCNC(=N)N)NC(=O)[C@@H](Cc3ccccc3)NC(=O)[C@@H](NC(=O)COCCOCCOCCNC(=O)CCCC[C@@H]3SC[C@@H]4NC(=O)N[C@@H]43)Cc3cn(nn3)CCCC[C@@H](C(N)=O)NC(=O)[C@@H](CO)NC2=O)c2ccccc21 [biotin-PEG3-Cy(frf(Me-Trp)s)] ({Biotin-AEEEA}-[Pra][dF][dR][dF][Trp(1-Me)][dS][Lys(N3)]-NH2; triazole 1-7)	–	–
125 nM	CC(C)C[C@H]1NC(=O)[C@@H](Cc2ccc(O)cc2)NC(=O)[C@@H](Cc2ccccc2)NC(=O)[C@@H](Cc2ccccc2)NC(=O)[C@@H](CCCNC(=N)N)NC(=O)[C@@H](NC(=O)COCCOCCOCCNC(=O)CCCC[C@@H]2SC[C@@H]3NC(=O)N[C@@H]32)Cc2cn(nn2)CCCC[C@@H](C(N)=O)NC1=O [biotin-PEG3-Cy(rffyl)] ({Biotin-AEEEA}-[Pra][dR][dF][dF][dY][dL][Lys(N3)]-NH2; triazole 1-7)	–	–
